# Patent US11492362B1, “Pyridine derivatives for the treatment of hyperproliferative diseases” (King Abdulaziz University, priority 2022, dated 2022)
# Columns and labels:
# [1] = system: HL-60 (leukemia) cell lines; assay: In vitro cytotoxicity, MTT assay; format: cell-based; settings: Homo sapiens, 72 h; HL-60, MTT, 3 days
# Procedure: Cells suspended in medium (2×10^4 cells/mL) were plated in 96-well culture plates and incubated at 37° C. in a 5% CO2 incubator. After 12 h, the test sample (2 μL) was added to the cells (2×10^4) in 96-well plates and cultured at 37° C. for 3 days. The cultured cells were mixed with 20 μL of MTT solution and incubated for 4 h at 37° C. The supernatant was carefully removed from each well and 100 μL of DMSO was added to each well to dissolve the formazan crystals which were formed by the cellular reduction of MTT. After mixing with a mechanical plate mixer, the absorbance of each well was measured by a microplate reader using a test wavelength of 570 nm. The results were expressed as the IC50 (μM), which induces a 50% inhibition of cell growth of the treated cells when compared to the growth of control cells. Each experiment was performed at least 3 times. There was a good reproducibility between the replicate wells with standard error [46].
# In vitro cytotoxicity of the synthesized compounds 4, 6, and 7 was determined using the MTT assay against HL-60 (leukemia) cell lines. Doxorubicin (Doxo) one of the most efficient anticancer agentd was utilized as a reference compound in this study.
# [2] = system: Leukemia HL-60 cell line; assay: Cell cycle analysis, PI staining and DNA flow cytometry; format: cell-based, human; settings: HL-60, compound at its IC50 concentration
# Procedure: (§1) For cell cycle analysis, cell pellets were fixed with 70% ethanol on ice for 15 min and collected again. The collected pellets were incubated with propidium iodide (PI) staining solution ([…], 0.1 mg/mL RNaseA, 0.05% Triton X-100) at room temperature for 1 hour and analyzed by Gallios® flow cytometer (Beckman Coulter, Brea, Calif., USA). Apoptosis detection was performed by FITC Annexin V/PI commercial kit (Becton Dickenson, Franklin Lakes, N.J., USA) following the manufacturer's protocol. The samples were analyzed by fluorescence-activated cell sorting (FACS) with a Gallios® flow cytometer (Beckman Coulter, Brea, Calif., USA) within 1 h after staining. Data were analyzed using Kaluzav® 1.2 (Beckman Coulter).
# Cell cycle analysis was assessed in Leukemia HL-60 cell line after staining the nuclei with propidium iodide (PI) followed by DNA flow cytometry analysis.
# [3] = system: Leukemia HL-60 cells; assay: Annexin V-FITC/PI apoptosis detection; format: cell-based, human; settings: HL-60, Annexin V-FITC/PI
# Procedure: as §1
# Moreover, compound 4 increased the percentage of late apoptotic cells by 43.07-more than untreated control.
# [4] = system: caspase 3/7 in Leukemia HL-60 cells; assay: Activated caspase 3/7 assay; format: cell-based, human; settings: HL-60, IC50 concentration, 24 h, flow cytometry; untreated control 0.54%
# Procedure: Activities of caspases-3 and -7 were measured using DRG Caspase-3 (human) ELISA (EIA-4860) kit (DRG International Inc., USA), Invitrogen. Caspase-7 (Active) (human) ELISA kit, Catalog #KHO1091 (96 tests) (Invitrogen Corporation, USA) according to the manufacturer's instructions.
# The activation of caspase 3/7 was determined in compound 4 treated Leukemia HL-60 cells at IC50 concentration using green flow cytometry assay for 24 h.
# [5] = system: HL-60; assay: Confluency analysis; format: cell-based, human; settings: HL-60, 50 μg/mL
smiles,measurement,setting,value
"c1cc(-c2ccn3cnnc3n2)nc(-c2ccn3cnnc3n2)c1 [Compound 4, 2,6-bis([1,2,4]triazolo[4,3-a]pyrimidin-7-yl)pyridine]",IC50,[1],3.28 ± 0.13 µg/mL
same,percentage of cells at pre-G1 peak,[2]; control 1.42%,19.32%
same,cell percentage in the G2/M phase,[2]; untreated control 16.80%,51.84%
same,cell survival percentage in comparison with untreated control,[3],sharp decrease
same,increase of percentage of early apoptotic cells versus untreated control,[3],8.14 fold
same,increase of percentage of late apoptotic cells versus untreated control,[3],43.07
same,level of caspase 3/7 percentage,[4],10.04%
same,cell morphology in the image,[5],"round, high-contrast objects"
"CN(C)/C=C/C(=O)c1cccc(C(=O)/C=C\Nc2sc3c(c2C#N)CCCC3)n1 [Compound 6, 2-(((Z)-3-(6-((E)-3-(dimethylamino)acryloyl)pyridin-2-yl)-3-oxoprop-1-en-1-yl)amino)-4,5,6,7-tetrahydrobenzo[b]thiophene-3-carbonitrile]",IC50,[1],3.66 ± 0.11 µg/mL
"COc1cccc2c1C(=O)c1c(O)c3c(c(O)c1C2=O)C[C@@](O)(C(=O)CO)C[C@@H]3O[C@H]1C[C@H](N)[C@H](O)[C@H](C)O1 [Dox, Doxorubicin, reference compound]",IC50,[1],2.2 ± 0.08 µg/mL
"N#Cc1c(N/C=C\C(=O)c2cccc(C(=O)/C=C\Nc3sc4c(c3C#N)CCCC4)n2)sc2c1CCCC2 [Compound 7, 2,2′-(((1Z,1′Z)-pyridine-2,6-diylbis(3-oxoprop-1-ene-3,1-diyl))bis(azanediyl))bis(4,5,6,7-tetrahydrobenzo[b]thiophene-3-carbonitrile)]",IC50,[1],28.5 ± 1.56 µg/mL
"CN(C)C=CC(=O)c1cccc(C(=O)C=CN(C)C)n1 [Compound 2, 2,6-Bis(3-dimethylamino-1-oxoprop-2-en-yl)pyridine]",melting point,,236.4 to 237.2 °C
